The structures appear in SMILES notation. ≈ marks a conversion by molar mass, not a printed value.

The conditions of this data set: buffer; pH 7.4; 200.0 µM.
One may read the kinetic solubility as solubility judged after dilution from a stock solution rather than from solid. Consider `Cl.O=C(OCC1CCNCC1)c1ccc2c(c1)OCO2`, for which the solubility (kinetic) is greater than 45 µg/mL. Regarding `Cc1ccc(N2CC(C(=O)NC3CC3)CC2=O)cc1` (configuration not stated), the kinetic solubility was greater than 38.7 µg/mL. Regarding `COc1cc(/C=N/Nc2ccccn2)cc(OC)c1O`, the kinetic solubility was greater than 41 µg/mL. With `CC(NC(=O)NC(=O)c1ccc(Cl)cc1)c1ccccc1` (configuration not stated), the solubility (kinetic) turned out to be 0.4 µg/mL (≈ 1.32 µM).

`Cn1c(CN2CCCCC2)nc2cc([N+](=O)[O-])ccc21` returned a kinetic solubility greater than 41.1 µg/mL.

As for `CC(=O)Nc1ccc(S(=O)(=O)NCCC(=O)N2CCN(c3ccccc3Cl)CC2)cc1`, the solubility (kinetic) was greater than 69.7 µg/mL.

In turn, `CN(C(=O)COc1ccc(Br)cc1Cl)C1CCCCC1` displayed a solubility (kinetic) of 19.8 µg/mL (≈ 54.9 µM). In turn, `CC(=O)c1ccc(NC(=O)C(C)O/N=C(\N)c2ccccc2)cc1` (configuration not stated) gave a solubility (kinetic) of 45.5 µg/mL (≈ 140 µM).

As to `COc1cc(OC)c(C(=O)Nc2ccc(C(=O)c3ccccc3)cc2)cc1OC`, the solubility (kinetic) was 3.4 µg/mL (≈ 8.69 µM). In the case of `COc1ccc(C2c3ccsc3CCN2C(C)=O)cc1` (configuration not stated), the solubility (kinetic) is 32.2 µg/mL (≈ 112 µM). As for `Cc1cnc(C(=O)NCC(c2ccccc2)c2ccccc2)cn1`, the figure is 0.8 µg/mL (≈ 2.52 µM); as for `COC(=O)C(N)Cc1ccc(O)c(O)c1.Cl` (configuration not stated), 24.4 µg/mL. As for `O=C1c2cccc3c([N+](=O)[O-])ccc(c23)C(=O)N1O`, the figure is greater than 38.7 µg/mL; as for `CC[n+]1c(C)n(-c2ccccc2)c2ccc(NC(C)=O)cc21.[I-]`, greater than 63.2 µg/mL; as for `O=C(Nc1ccc(F)cc1)c1cccnc1Oc1ccccc1`, 4.3 µg/mL (≈ 13.9 µM).

`Fc1ccccc1N1CCN(Cc2cnc(Cl)s2)CC1` came in with a kinetic solubility of 37.1 µg/mL (≈ 119 µM). As for `CCOC(=O)c1cc(C#N)c(Nc2ccc(C)cc2)nc1C(F)(F)F`, the figure is less than 0.2 µg/mL; as for `COc1ccc(C(=O)NC(C)c2ccc(-n3ccnc3)cc2)c(OC)c1` (configuration not stated), greater than 52.7 µg/mL; as for `Cc1ccccc1NCc1nc2ccccc2n1C`, 5 µg/mL (≈ 19.9 µM). In turn, `O=C(O)CCC(=O)Nc1cc(C(F)(F)F)cc(C(F)(F)F)c1` returned a kinetic solubility of 43.6 µg/mL (≈ 132 µM). For the compound `CC(C)[C@H](NS(=O)(=O)c1ccccc1)C(=O)Nc1nccs1`, the kinetic solubility was found to be 7.2 µg/mL (≈ 21.2 µM). On to `Cc1ccc(S(=O)(=O)c2nc(-c3ccccc3Cl)oc2N2CCN(C)CC2)cc1`, for which the solubility (kinetic) amounted to 25.2 µg/mL (≈ 58.3 µM). In the case of `C=C1N(C)c2cc([N+](=O)[O-])c(N)cc2C1(C)C`, the kinetic solubility is greater than 35 µg/mL. `CCN(C(=O)c1ccc2c(c1)OCO2)C1CCS(=O)(=O)C1` (configuration not stated) showed a solubility (kinetic) greater than 46.7 µg/mL.

Take `CNc1nc2cccnc2s1`: the kinetic solubility is greater than 24.8 µg/mL.

In turn, `O=C(NCC(=O)N1CCCC1)c1ccc(Br)o1` displayed a kinetic solubility greater than 45.2 µg/mL. The figure for `COCCNC(=O)C1Cc2c(ccc3ccccc23)O1` (configuration not stated) is greater than 40.7 µg/mL; for `CN(C)c1cccc(N(C)C)c1CNC(=O)C(C)(C)C` it is 39.7 µg/mL (≈ 143 µM). On to `COc1ccc(-n2c(C)cc(/C=C3\SC(=O)NC3=O)c2C)cc1`, for which the solubility (kinetic) is 3.9 µg/mL (≈ 11.9 µM). The figure for `C=CCc1cccc2cc(C(=O)Nc3ccc(NC(C)=O)cc3)c(=O)oc12` is 1.7 µg/mL (≈ 4.69 µM); for `Cc1ccc(S(=O)(=O)c2nc(-c3cccs3)oc2N2CCC(C(N)=O)CC2)cc1` it is greater than 64.7 µg/mL.

On to `O=S(=O)(c1ccc(NCCCO)nc1)N1CCOCC1`, for which the kinetic solubility was greater than 45.2 µg/mL.

In the case of `Cc1cccc(NC(=O)N2CCCc3ccccc32)c1C`, the kinetic solubility came to 13.2 µg/mL (≈ 47.1 µM). The figure for `Cc1nc2c(C)[n+](CC(=O)c3ccccc3)ccc2n1C.[Br-]` is greater than 54 µg/mL. As to `Cc1cccc(NC(=O)c2ccc(S(=O)(=O)N3CCCC3)cc2)c1C`, the solubility (kinetic) came to 2 µg/mL (≈ 5.58 µM). `Cl.c1cncc(CNC2CCCC2)c1` displayed a solubility (kinetic) greater than 37.4 µg/mL. The figure for `N#Cc1c(/N=C/c2cccnc2)sc2c1CCCC2` is 7.5 µg/mL (≈ 28.1 µM); for `O=C(O)C1CCCCC1C(=O)NCCCN1CCCC1=O` (configuration not stated) it is 41.4 µg/mL (≈ 140 µM); for `O=S(=O)(NCCc1ccccc1)c1ccc(Br)s1` it is 27.5 µg/mL (≈ 79.4 µM). Compound `Cc1[nH]c2ccccc2c1C(=O)CSc1cccc[n+]1[O-]` showed a solubility (kinetic) of 40.8 µg/mL (≈ 137 µM). As for `CN1CCC(NC(=O)c2cccc(Oc3ccccc3)c2)CC1`, the kinetic solubility is greater than 46.6 µg/mL. `NC(=O)c1ccccc1N1CCCCC1` yielded a kinetic solubility greater than 30.6 µg/mL. Consider `Cc1ccc2[nH]cc(S(=O)(=O)c3ccc(C(C)C)cc3)c(=O)c2c1`, for which the solubility (kinetic) is less than 0.7 µg/mL.

`Cc1cc(=S)c2cccc(C)c2[nH]1` registered a solubility (kinetic) of 26.5 µg/mL (≈ 140 µM). Turning to `N#C/C(=C\c1ccc(O)c([N+](=O)[O-])c1)C(=O)NCc1ccccc1`, the solubility (kinetic) is 46.2 µg/mL (≈ 143 µM).

For `O=C(Nc1cccnc1)C1=NN(C2CCS(=O)(=O)C2)C(=O)CC1` (configuration not stated), the solubility (kinetic) was greater than 50.5 µg/mL.

Turning to `Cl.O=C(O)C1=CCNCC1`, the kinetic solubility was greater than 24.5 µg/mL. The compound `COc1ccc2oc(C(=O)NC(C)(C)C)c(C)c2c1` returned a solubility (kinetic) of 1.8 µg/mL (≈ 6.89 µM). The compound `Cc1nc2ccc([N+](=O)[O-])cc2nc1C` returned a solubility (kinetic) greater than 30.5 µg/mL.

`O=C(NCCCc1ccccc1)c1ccc([N+](=O)[O-])cc1Cl` yielded a solubility (kinetic) of 9.2 µg/mL (≈ 28.9 µM).

With `COc1ccc(OC)c(-c2cc(-c3cccnc3)nc(N)c2C#N)c1`, the kinetic solubility worked out at 1.7 µg/mL (≈ 5.11 µM). Consider `Cc1ccc(OCC(=O)N2CC(C)CC(C)C2)c([N+](=O)[O-])n1` (configuration not stated), for which the kinetic solubility was greater than 46.1 µg/mL.

The values above are taken from PubChem BioAssay AID1996.
